What all share (conditions): 4 mM UDP-glucose, pH 7.5, 30 °C, 10 mM DTT
In one series the test system is T1, UGT72AD1.
T1 construct: full-length ORF cloned from leaf cDNA; MBP fusion (pMAL-c2x), E. coli Novablue, maltose-resin purified
The series is described as follows: HPLC glucosylation assay. In kind it is biochemical, Lotus japonicus.

Substrate in series [1]: O=c1c(O)c(-c2ccc(O)c(O)c2)oc2cc(O)cc(O)c12
As to the kind of experiment: HPLC glucosylation assay. In kind it is biochemical, Lotus japonicus. The text has this: (§1) HPLC glucosylation assay on UGT72Z2 | UGT72Z2 ...

Substrate in series [2]: O=c1c(O)c(-c2ccc(O)cc2)oc2cc(O)cc(O)c12
As to the kind of experiment: HPLC glucosylation assay. In kind it is biochemical, Lotus japonicus.
Description: as §1

Substrate in the series “purified protein”: O=c1c(O)c(-c2cc(O)c(O)c(O)c2)oc2cc(O)cc(O)c12
As to the kind of experiment: purified protein.

Regarding `O=c1c(O)c(-c2ccc(O)c(O)c2)oc2cc(O)cc(O)c12` [quercetin], the Km in the series with UGT72AD1 was determined as 310 µM.

For the molecule `O=c1c(O)c(-c2ccc(O)cc2)oc2cc(O)cc(O)c12` [kaempferol], the Km in the series with UGT72AD1 amounted to 330 µM.

Consider `O=c1c(O)c(-c2cc(O)c(O)c(O)c2)oc2cc(O)cc(O)c12` [myricetin], for which the Km with UGT72AD1 came out at 390 µM.

B1: UGT72Z2 (Lotus japonicus) (protein)
chain: MAKTIHIAAVSIPAFSHQASIIEFCKKLLHLHHHYHVTCIFPTIDAPVAATLKLLQSLPSTIDFKFLPPVNKQDLPQDVSPAVQIQLAVSQSMPSFRDTMRSLHSTTPHLTALIADPFANEALEIGKEFNLLSYIYFPPSAMTLSLFLHLPKLHEEVSCEYRDLTEPIQIPGCIPIQGQDLPEHFQDRSSLAYDLILKRCKRFSLADGFLVNSFLELEEGTVKALQEQNRGNRGENRGNRGKNRGNRDSPVFLVGPVIQTGPSSEPKGSESEYCVRWLENQIPKSVLYVSFGSGGTLSQEQMNELAFGLELSGQKFLWVVRAPSDSANAAYLGVGNEDPLKFLPSGFIERTKGQGLVIPSWAPQTQILSHSSIGGFLTHCGWNSVLESIVLGVPMITWPLFAEQRMNAVLLTDGVKVALRPKFDENGIVKREEIAVVVKGLMQGEEGNGIHHRIEVLKEAAADALKEDGSSTRALSQFGNQIENFLALK
notes: full-length ORF cloned from leaf cDNA; MBP fusion (pMAL-c2x), E. coli Novablue, maltose-resin purified
Regarding B1, the Km came to 68 µM in the series “HPLC glucosylation assay [1]”, 40 µM in the series “HPLC glucosylation assay [2]” and 46 µM in “purified protein”.

Broadly, the Km is the concentration of substrate that gives half-maximal velocity.

The values are drawn from paper PMC5444469, “Involvement of three putative glucosyltransferases from the UGT72 family in flavonol glucoside/rhamnoside biosynthesis in Lotus japonicus seeds” (Journal of Experimental Botany, 2016).
